# Measurements reported in patent US20230218555A1, “CREATINE, ITS DERIVATIVES, COMPOSITIONS AND METHODS OF USE THEREOF” (priority 2021, published 2023).
# “Also recorded” adds a separate entry of the source.
# Experiments:
# Assay type in all cases: in vivo, human
# [1] = system: sprained left ankle; test: Example 27: ankle sprain pain; conditions: 4% in WP 82, 2-3 times daily for 4-5 days
# Excerpt: A subject sprained their left ankle while hiking.
# [2] = system: thermal burns; test: Example 22: pain of thermal burns, topical; conditions: for relief of burn pain: person
# Excerpt: One subject spilled boiling hot water on their left hand. Within a couple hours pain was intense. They then applied 4% solution of N-acetyl ethyl creatinate (C15) dissolved in water: ethanol: propylene glycol 5:3:2 which they had been using to relieve pain over a lateral meniscus. […] Such application was continued over the next several days until the burn pain disappeared spontaneously.
# A second subject burned their forearm where they accidentally touched the hot oven rack. They immediately applied 9% solution of N-acetyl ethyl creatinate (C15) dissolved in water: ethanol: propylene glycol 5:3:2 that they were using for topical treatment of their rheumatoid arthritis. […] Repeated application were applied over the next 3 days, until the burn pain spontaneously ceased.
# [3] = system: dermatitis of uncertain etiology; test: Example 32: itch of dermatitis of uncertain etiology
# Experimental: subject one who had worked planting a new rock and flower garden during the day, in the evening became acutely aware of an itch sensation in the lower back, just below the beltline. […] Itch relief lasted for 2-3 hours; three additional applications were made during the night. […] Etiology was not ascertained.
# [4] = system: poison ivy dermatitis; test: Example 36: poison ivy dermatitis itch
# Experimental: A subject developed poison ivy dermatitis of their forearms about 18 hours after pruning bushes. Itch was intense at 24 hours when they applied C15 10% in a lotion made up of hydrophilic ointment USP 35% diluted with 65% water. […] Duration of itch relief next was for about 10 hours and the next for 12-15 hours. Relief was longer and longer from subsequent applications. Signs and symptoms of dermatitis were gone at 4 days.
# [5] = system: bunion on right foot; test: Example 21: subcutaneous injection over bunion; conditions: weekly subcutaneous injections of 1.5% aqueous solution
# Excerpt: A subject presented with bunion on right foot that has been enlarging over the past decade. […] Weekly injections will be continued for another month or two to determine whether complete resolution will be achieved.
# [6] = system: painful left knee; test: Example 10: acute knee pain after physical trauma
# Excerpt: A subject with painful left knee gave a history of physical trauma to the left knee while cleaning their house. Degree of pain was sufficiently intense that it required them to wear a knee brace throughout the day, daily. […] The subject was provided a formulation of N-acetyl ethyl creatinate 1.5% dissolved in water: propylene glycol 8:2 for topical application.
# [7] = system: post trauma pain; test: Example 33: post trauma pain of hand
# Excerpt: A subject was provided a 9% solution of C15 in WEP 532 for possible use against itch or pain. Several weeks later they sent by e-mail the following message:
# “Yesterday I slammed the top of my hand accidentally against a door. That really hurt and I could barely move my hand. Started to ice it and then realized that I had decided to keep one bottle of the pain medicine here at the shore. […] Like a miracle. Iced it after as I could tell a welt was forming. Again at bedtime I put a little of the pain med on it in case the earlier application wore off and iced again as it was a bit swollen. Looked red and maybe a little swollen this morning but no pain!”
# [8] = system: psoriatic arthritis; test: Example 25: psoriatic arthritis, topical C15
# Excerpt: A subject with a 42 year history of psoriasis, and psoriatic arthritis for the past 8 years, was provided a topical solution of C15 4% in WP 82. […] The subject has used topical formulations of C15 for over 12 weeks, comparing efficacy of 2%, 3.5% and 5% concentrations of C15.
# [9] = system: pruritic urticarial mosquito bite lesions; test: Example 28: mosquito bite itch
# Experimental: Six subjects, 2 males and 4 females, age 31-74 years, who had gathered for a back yard cookout, suffered multiple mosquito bites. One subject carried 2 ounces of C15 6% in WEP 532 shared with the five others for topical application to the pruritic urticarial mosquito bite lesions.
# This solution was later applied to an intensely pruritic urticarial lesion, 1 cm in diameter, due to a mosquito bite. […] Clinical evidence of the lesion began to fade about 3 minutes later, and at 5 minutes the subject had no sensory awareness of the lesion as it disappeared over the next 10-15 minutes.
# [10] = system: eczema; test: Examples 30 and 37: itch and eczema
# Excerpt: subject two, with a 25 year history of eczema, was provided a topical formulation of 6% C15 in a lotion made up of hydrophilic ointment USP 35% diluted with 65% water. […] They emphasized, however, that their eczema worsens in the autumn and winter, so their final judgment needs to be delayed from the summer season to several months later.
# subject four with a 14 year history of eczema was provided the same lotion.
# subject three, with a history of eczema for 35 years, was provided the same solution. […] They have expressed great gratitude and hopes that the same beneficial results will persist during the autumn and winter seasons.
# subject two, with a 25 year history of eczema, was provided a topical formulation of 6% C15 in a lotion made up of hydrophilic ointment USP 35% diluted with 65% water. After ten days of topical applications, itch was relieved for intervals of 1.5 hour up to 24 hours. […] Sites of itch were treated with prompt application of the above lotion which completely aborted further development.
# subject four with a 14 year history of eczema was provided the same lotion. […] Patient has moved from the area and has been lost to long term follow up.
# subject three, with a history of eczema for 35 years, was provided the same formulation. […] They expressed great gratitude and hoped that the same beneficial results would persist during the autumn and winter months.
# They reported: “I use it sparingly. If I feel any itch or see a little patch I put it on and it's gone like the next day. […] It's so great. It's miraculous!”
# [11] = 6% lotion as needed, person three
compound,measurement,setting,value
"CCOC(=O)CN(C)C(N)=NC(C)=O [Compound C15, N-acetyl ethyl creatinate]",ankle pain at end of treatment,[1],no ankle pain was detected
same,relief of burn pain,"[2]; 4% in water: ethanol: propylene glycol 5:3:2, topical, hand",immediate relief of the burn pain
same,duration of relief,[2]; 4% solution,4 to 5 h
same,relief of burn pain,"[2]; 9% in water: ethanol: propylene glycol 5:3:2, topical, forearm",Burn pain was completely instantly relieved
same,duration of relief,[2]; 9% solution,4 to 5 h
same,extent of itch relief,"[3]; 4% in water: propylene glycol 8:2, topical",Itch was completely relived
same,duration of itch relief,[3]; 4% topical,2 to 3 h
same,resolution of dermatitis and itch,[3]; three additional applications during the night,The dermatitis and itch resolved early next day
same,relief of itch,"[4]; 10% in lotion (hydrophilic ointment USP 35%, water 65%), forearms",Relief of itch was immediate
same,duration of itch relief,[4]; first application,about 6 hours
same,time until signs and symptoms of dermatitis were gone,[4]; repeated applications,4 days
same,duration of itch relief,[4]; second application,about 10 hours
same,duration of itch relief,[4]; third application,12 to 15 h
same,change of bunion,[5],distinct resolution in mass
same,time to pain relief after application,"[6]; 1.5% in water: propylene glycol 8:2, topical",about 2 minutes
same,extent of pain relief,"[6]; 1.5% in water: propylene glycol 8:2, topical, person",pain in the knee completely vanished
same,recurrence of pain,[6]; at report 10 days later,Pain had not recurred
same,relief of pain,"[7]; 9% in WEP 532, topical to hand",in a minute or two the pain went away
same,pain next morning,[7]; second application at bedtime,no pain
same,duration of relief,[8]; 4% in WP 82,6 to 24 h
same,relief of pain,"[8]; 4% in WP 82, topical to wrists, hands, fingers and ankles, person","almost instantaneous, complete relief of pain"
same,"comparison of 2%, 3.5% and 5% concentrations",[8]; 5% administered as a spray mist,most effective of the three
same,duration of complete pain relief,[8]; 5% spray mist,24 h
same,extent of itch relief,"[9]; 6% in WEP 532, topical, six subjects",itch was completely eradicated
same,extent of itch relief,"[9]; 6% in WEP 532, person one, lesion 1 cm",all itch sensation was gone and did not return
same,time to eradication of itch,"[9]; 6% in WEP 532, six subjects",about 1 minute
same,time to loss of itch sensation,[9]; person one,≤ 1 min
same,"time until lesion began to fade, after itch relief",[9]; person one,about 3 minutes
same,time of disappearance of lesion,"[9]; person one, counted from 5 minutes",10 to 15 min
same,return of itch,[9]; six subjects,No itch returned
same,itch after 4 days of application,[10]; [11],itch was now negligible; also recorded: itch became negligible
same,signs of eczema on skin,[10]; [11],skin was nearly entirely free of signs of eczema; also recorded: skin became nearly entirely free of signs of eczema
same,extent of itch relief,"[10]; 6% lotion, 2 weeks, person four",itch was relieved completely
same,duration of itch relief after a single application,"[10]; 6% lotion, person four",24 to 48 h
same,eczema after ten days,"[10]; 6% lotion, person two",felt that their eczema was undergoing resolution
same,eczema at the end of the following February,"[10]; 6% lotion, person two",eczema was still under almost complete resolution
same,skin at the end of February,[10]; person three,their skin has remained clear
